How the values were obtained:
[1] = system: pooled primary human hepatocyte suspensions; assay: Hepatic clearance assay (substrate depletion, LC-MS); conditions: in µL/min/10^6 cells; for CLint for HTTK: CLint value carried into HTTK/IVIVE; for in vitro CLint exp assay / Unadj Clint: pooled primary human hepatocyte suspensions; for Unadj Clint: unadjusted hepatic intrinsic clearance, Table S4
Protocol: The rate of hepatic clearance was determined as previously described for a set of PFAS [11]. Analysis was conducted across two laboratories at the Division of Translational Toxicology (DTT) at the National Institute of Environmental Health Sciences (NIEHS) and the Center for Computational Toxicology and Exposure at the USEPA. The PFAS analyzed in each lab can be found in the Supplementary Materials.
The hepatic clearance assay was performed at both the DTT and EPA laboratories as described below. The pooled human hepatocyte suspensions used in this work were purchased commercially and meet the ethical and scientific standards described in the Human Ethics Rule (40 CFR 26). The suspensions were prepared from hepatocytes obtained from de-identified donors by a commercial vendor.
PFAS stock solutions prepared in DMSO were added to prewarmed William’s E medium to make a 2X working stock solution (2 µM). […] The working stock solutions were then transferred to a 96-well polypropylene plate and placed in an incubator at 37 °C with 5% carbon dioxide prior to adding cells. Cryopreserved pooled primary human hepatocyte suspensions (50-donor pool, mixed gender; BioIVT; Westbury, NY, USA) were thawed and transferred to vials containing hepatocyte thawing medium. After centrifuging for 5–10 min at 100× g, thawing medium was removed, being careful not to disturb the cell pellet. The primary human hepatocytes were then resuspended in pre-warmed complete Williams E medium to achieve a cell density of ~1.0 × 10^6 viable cells/mL as determined by Trypan Blue exclusion. Cells were then added to the 96-well incubation plates containing PFAS to achieve a final density of ~0.5 × 10^6 viable cells/mL and a 1 μM assay concentration (Ctest), then placed in incubator on a shaker at 300 rpm. Triplicate samples were removed from the incubator at time points ranging from 0 to 240 min and quenched with a total crash in 2–3 volumes of ice-cold acetonitrile. Samples were spun at 4000× g for 20 min, and supernatants were transferred to new tubes and stored at <−70 °C until analysis. Media-only (no cell) and/or heat-inactivated hepatocytes were included as negative controls for each chemical to evaluate and estimate chemical loss due to nonmetabolic processes (e.g., hydrolysis). Phenacetin was included in all runs as an assay reference compound; EPA also included propranolol as an additional reference compound.
Assay samples were diluted in mobile phase and analyzed using a Thermo Vanquish UPLC system with a Thermo Hypersil Gold aQ C18 column (100 × 2.1 mm, 1.9 […], Thermo Fisher Scientific Inc.) coupled to a Q Exactive Plus mass spectrometer. Gradient elution was used in the chromatographic separations using water with 20 mM ammonium acetate (mobile phase A) and methanol (mobile phase B), with the following gradient program: 0.5–7 min, 30%–90% B; 7–8 min, 90% B; 8–9 min, 90%–30% B; and 9–10 min, 30% B. The first minute of each injection was diverted to waste to avoid introduction of excessive salts from incubation medium. Analysis was detected in negative ion mode. Samples were quantified against an external, matrix-matched calibration curve. Additional methodologic information is available in Table S2.
To perform SPE, a positive-pressure manifold was employed along with Oasis WAX µElution plates and Oasis HLB 30 mg plates (Waters, Milford, MA, USA) for PFAS and positive-control extraction, respectively. […] The sorbent was then washed with 1% formic acid and water. Samples were eluted in 2% ammonia in methanol for analysis. Similarly, HLB plates were conditioned with methanol and water before sample was loaded onto the sorbent. The wells were then washed with 5% methanol in water and water before elution in methanol. For samples not undergoing SPE, the supernatant of the crashed assay sample was diluted in mobile phase prior to analysis. The first 1.5 min of the run was diverted to waste to prevent salt contamination.

plasma protein = conditions: cited from earlier work; for Mean fu: fraction unbound in plasma, input for IVIVE calculations
[2] = IVIVE: steady-state concentration (Css), generic HTTK model; design: species or system human; conditions: for Css (mg/L) / Css (uM): Assuming 1 mg/kg/day dose rate, BW 70 kg; for CLhep: QL 1500000 uL/min; for Fub: fub=fup/(B:P), Fub set to 1 if needed; for CLint: scaled to whole liver: HPGL 110 mill cells/g, Vl 1596 g
Protocol: IVIVE was performed as previously described to calculate human steady-state concentrations (Css). Briefly, experimental plasma protein binding data presented elsewhere were transformed to fraction unbound in blood using blood-to-plasma partitioning values. Experimental Clint values generated here are used in conjunction with relevant liver scalars to scale up to estimate whole liver clearance. […] Once Css values were established, these were used with the PFAS-specific in vitro POD data to calculate the administered equivalent doses (AEDs) using reverse dosimetry. […] The fifth-percentile AC50 value was used to define the in vitro POD. All relevant inputs, scalars, and calculations are provided in Supplementary Information, as indicated in the results.

SMILES	CLint for HTTK [1]	in vitro CLint exp assay [1]	Mean fu (plasma protein)	Css (mg/L) [2] [mg/L]	Css (uM) [2] [µM]	CLhep [2] [L/h]	Fub [2]	CLint [2] [µL/min]	Unadj Clint [1]	fup (fraction unbound in plasma) (plasma protein; human plasma)	Css ([2]; human steady-state concentration, 1 mg/kg/day exposure rate, loss of parent compound only) [µM]
O=C(O)C(F)(F)C(F)(F)C(F)F [4H-perfluorobutanoic acid (4H-PFBA)]	0	0	0.1714	1.41	7.18	0.000	0.3116	0			
O=C(O)C(F)(F)C(F)(F)C(F)(F)C(F)(F)C(F)(F)C(F)(F)C(F)F [8H-Perfluorooctanoic acid (8H-PFOA)]	0	0	0.0021	114.93	290.23	0.000	0.003818	0			
N.O=C(O)C(F)(F)C(F)(F)C(F)(F)C(F)(F)C(F)(F)C(F)(F)C(F)(F)F [Ammonium perfluorooctanoate (NH4PFOA)]	2.06	2.06	0.0007	81.36	196.53	0.028	0.001273	361654			
O=C(O)C(F)(F)C(F)(F)C(F)(F)C(F)(F)F [PFPeA, Perfluoropentanoic acid]									2.13	0.0440	20.78
O=S(=O)(O)C(F)(F)C(F)(F)C(F)(F)C(F)(F)C(F)(F)C(F)(F)C(F)(F)F [Perfluoroheptanesulfonic acid (PFHpS)]	0	0	0.0006	402.24	893.98	0.000	0.001091	0			
O=C(Cl)C(F)(F)C(F)(F)C(F)(F)C(F)(F)C(F)(F)C(F)(F)F [Perfluoroheptanoyl chloride (PFHpA-Cl)]	0	0	0.0017	180.82	473.43	0.000	0.002427	0			
NS(=O)(=O)C(F)(F)C(F)(F)C(F)(F)C(F)(F)C(F)(F)C(F)(F)F [Perfluorohexanesulfonamide (PFHxSA)]	0	0	0.0004	603.36	1512.33	0.000	0.0007273	0			
O=S(=O)(O)C(F)(F)C(F)(F)C(F)(F)C(F)(F)C(F)(F)C(F)(F)F [Perfluorohexanesulfonic acid (PFHxS)]	0	0	0.0009	268.16	670.49	0.000	0.001636	0			
O=C(O)C(F)(F)C(F)(F)C(F)(F)C(F)(F)C(F)(F)C(F)(F)C(F)(F)C(F)(F)F [Perfluorononanoic acid (PFNA)]	0	0	0.0016	150.84	325.11	0.000	0.002909	0			
NS(=O)(=O)C(F)(F)C(F)(F)C(F)(F)C(F)(F)C(F)(F)C(F)(F)C(F)(F)C(F)(F)F [Perfluorooctane sulfonamide (PFOSA)]	17.84	17.84	0.0039	2.16	4.33	1.313	0.007091	3131990			
O=S(=O)(O)C(F)(F)C(F)(F)C(F)(F)C(F)(F)C(F)(F)C(F)(F)C(F)(F)C(F)(F)F [Perfluorooctane sulfonate (PFOS)]	0	0	0.0049	49.25	98.52	0.000	0.008909	0			
O=S(=O)(O)C(F)(F)C(F)(F)C(F)(F)C(F)(F)C(F)(F)C(F)(F)C(F)(F)C(F)(F)F [Perfluorooctanesulfonate (PFOS-)]	0	0	0.0047	51.35	102.71	0.000	0.008545	0			
O=C(O)C(F)(F)C(F)(F)C(F)(F)C(F)(F)C(F)(F)C(F)(F)C(F)(F)F [Perfluorooctanoic acid (PFOA)]	0	0	0.001	241.34	582.99	0.000	0.001818	0			
O=C(O)C(F)(F)C(F)(F)C(F)(F)C(F)(F)F [Perfluoropentanoic acid (PFPeA)]	0	0	0.044	5.49	20.78	0.000	0.08	0			
O=C(O)C(F)(F)C(F)(F)F [Perfluoropropanoic acid (PFPrA)]	0	0	0.3108	0.78	4.74	0.000	0.5651	0			
O=C(O)C(F)(F)C(F)(F)C(F)(F)C(F)(F)C(F)(F)C(F)(F)C(F)(F)C(F)(F)C(F)(F)C(F)(F)C(F)(F)C(F)(F)C(F)(F)F [Perfluorotetradecanoic acid (PFTeA)]	0	0	0.0271	8.91	12.47	0.000	0.04927	0			
O=C(O)C(F)(F)C(F)(F)C(F)(F)C(F)(F)C(F)(F)C(F)(F)C(F)(F)C(F)(F)C(F)(F)C(F)(F)C(F)(F)C(F)(F)F [Perfluorotridecanoic acid]	0	0	0.0433	5.57	8.39	0.000	0.07873	0	0.00		

Source: paper PMC11435625, “In Vitro Hepatic Clearance Evaluations of Per- and Polyfluoroalkyl Substances (PFAS) across Multiple Structural Categories” (Toxics, 2024)
